Experimental data as given in ChEMBL document CHEMBL1201862, “PubChem BioAssay data set” (2004).
Values joined by “and” are separate entries in the source; they are usually repeats but may differ in a detail not shown here. Equal entries are not always repeated. Active and inactive are the calls of the source. Cut-off read from the data, not from the text of the source, for most assays here: actives have a measured EC50 and inactives only a lower limit.

How the values were obtained:
[1] = biological target: T1, Heat shock factor protein 1 (Mus musculus, UniProt P38532); test: decrease of HSF1-responsive luciferase luminescence – cell-based, NIH3T3, dose retest, confirmation (AID 2382); type: functional;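 note: NIH3T3 fibroblasts with HSF1-driven luciferase reporter stressed by proteasome inhibitor MG132; luminescence from HSF1-driven luciferase expression after 8 hours of MG132 stress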
T1 sequence (P38532 whole entry): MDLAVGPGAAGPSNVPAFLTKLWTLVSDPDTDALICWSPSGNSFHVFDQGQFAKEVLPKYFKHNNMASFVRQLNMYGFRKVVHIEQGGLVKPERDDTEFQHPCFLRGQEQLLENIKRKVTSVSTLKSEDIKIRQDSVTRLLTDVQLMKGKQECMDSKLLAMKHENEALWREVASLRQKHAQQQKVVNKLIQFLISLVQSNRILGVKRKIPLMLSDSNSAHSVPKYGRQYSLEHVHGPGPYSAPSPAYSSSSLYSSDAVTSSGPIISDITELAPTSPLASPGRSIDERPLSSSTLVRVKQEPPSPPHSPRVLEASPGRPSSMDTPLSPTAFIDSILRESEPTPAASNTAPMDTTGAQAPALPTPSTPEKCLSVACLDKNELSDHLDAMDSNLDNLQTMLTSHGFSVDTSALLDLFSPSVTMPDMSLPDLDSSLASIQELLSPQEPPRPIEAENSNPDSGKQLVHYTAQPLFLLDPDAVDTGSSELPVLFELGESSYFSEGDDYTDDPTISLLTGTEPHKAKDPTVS

Cytochrome P450 2D6 = Cytochrome P450 2D6 (Homo sapiens, UniProt P10635);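 note: CYP2D6 member of a cytochrome P450 panel assay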
Cytochrome P450 2D6, sequence (P10635 whole entry): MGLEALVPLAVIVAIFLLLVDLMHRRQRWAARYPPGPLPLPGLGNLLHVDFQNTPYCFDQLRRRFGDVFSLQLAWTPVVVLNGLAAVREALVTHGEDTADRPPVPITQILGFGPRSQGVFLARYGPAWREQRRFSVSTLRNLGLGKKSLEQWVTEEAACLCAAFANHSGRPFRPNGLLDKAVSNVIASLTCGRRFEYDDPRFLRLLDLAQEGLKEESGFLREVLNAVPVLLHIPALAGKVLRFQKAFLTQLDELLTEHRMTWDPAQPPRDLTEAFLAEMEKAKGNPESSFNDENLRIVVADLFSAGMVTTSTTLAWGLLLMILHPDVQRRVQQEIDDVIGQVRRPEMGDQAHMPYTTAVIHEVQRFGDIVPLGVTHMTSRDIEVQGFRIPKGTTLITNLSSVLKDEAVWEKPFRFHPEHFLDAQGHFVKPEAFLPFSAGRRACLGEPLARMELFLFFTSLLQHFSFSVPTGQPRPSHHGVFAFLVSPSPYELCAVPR

Cytochrome P450 3A4 = Cytochrome P450 3A4 (Homo sapiens, UniProt P08684);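 note: CYP3A4 tested as one member of a cytochrome P450 panel screen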
Cytochrome P450 3A4, sequence (P08684 whole entry): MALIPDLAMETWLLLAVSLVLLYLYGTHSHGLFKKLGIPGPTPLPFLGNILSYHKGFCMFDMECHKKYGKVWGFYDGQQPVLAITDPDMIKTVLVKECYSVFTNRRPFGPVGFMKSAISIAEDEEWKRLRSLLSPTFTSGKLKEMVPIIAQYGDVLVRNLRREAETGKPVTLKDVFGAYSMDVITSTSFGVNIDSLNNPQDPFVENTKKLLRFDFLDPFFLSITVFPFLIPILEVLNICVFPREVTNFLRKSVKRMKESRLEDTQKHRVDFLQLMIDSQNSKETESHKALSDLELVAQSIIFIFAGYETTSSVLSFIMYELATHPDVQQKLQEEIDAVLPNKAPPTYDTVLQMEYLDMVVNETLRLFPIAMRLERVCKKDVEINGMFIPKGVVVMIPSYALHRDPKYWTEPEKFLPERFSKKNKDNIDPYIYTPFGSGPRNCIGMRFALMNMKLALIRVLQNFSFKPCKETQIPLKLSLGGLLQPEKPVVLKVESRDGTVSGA

Streptococcus = test: GAS UMAA2166 growth inhibition – luminescence, BacTiterGlo, counter-screen for streptokinase expression inhibitor project, dose response (AID 1915); type: functional, organism-based;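 note: potency for reduction of bacterial viability or growth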
[2] = tested on: Streptococcus sp. 'group A'; test: Streptococcus pyogenes SK(-)GAS viability under kanamycin – luminescence, BacTiterGlo, confirmation, counter-screen for streptokinase expression inhibitor project, dose response (AID 1900); type: functional, organism-based
[3] = Trypanosoma cruzi growth suppression in host cells – NIH3T3 host cells, beta-gal luminescence, confirmation (AID 2044); type: functional, cell-based;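 note: intracellular parasites grown in NIH/3T3 mouse fibroblasts as host cells; luminescent beta-galactosidase reporter signal from transgenic T. cruzi replicating inside host cells; inhibitors lower the luminescence signal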
[4] = NIH3T3 cell viability loss – ATP luminescence, mouse fibroblasts, counter-screen, dose response (AID 2010); type: functional, cell-based;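 note: cells exposed to compound for about 90 hours before reading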

## Cc1cc(C(F)(F)F)nc(SCc2ccc(C(=O)O)o2)n1
[1]
  EC50: > 195 µM (not active)

## COCC(=O)N1CCC2(CC1)CN(c1ccccn1)C2
Cytochrome P450 2D6
  AC50: 20 µM (inconclusive)

## COc1ccc(C(=O)N2CCC3(CCCN(Cc4ccccc4)C3)CC2)cc1
Cytochrome P450 3A4
  AC50: 31.6 µM (inconclusive)

## CC(C)CNC(=O)C1CCN(Cc2ccc(OCc3ccccc3)cc2)CC1
[1]
  EC50: > 195 µM (not active)

## O=C(CSC1=NCCN1)Nc1ccccc1
Cytochrome P450 3A4
  AC50: 5.01 µM (inconclusive)

## CN1[C@@H]2CC[C@H]1CC(O[C@@H](c1ccccc1)c1ccc(Cl)cc1)C2 (stereo partly specified)
Cytochrome P450 3A4
  AC50: 12.6 µM (inconclusive) and 15.8 µM (inconclusive)

## CNC[C@H](O)c1ccc(OC(=O)C(C)(C)C)c(OC(=O)C(C)(C)C)c1
Cytochrome P450 3A4
  AC50: 10 µM (inconclusive)

## C/C(N)=C(/C#N)C(=O)CSc1nc2scc(-c3ccc(F)cc3)c2c(=O)n1C
Streptococcus
  EC50: 3.17 µM (active)
[2]
  EC50: 2 µM (active)

## Cc1cnc(CNc2ncncc2-c2ccccc2C)cn1
Cytochrome P450 2D6
  AC50: 12.6 µM (inconclusive)

## Cc1ccc(C(=O)N/C(=C\c2ccc(Br)cc2)c2n[nH]c(S)n2)cc1
Cytochrome P450 2D6
  AC50: 31.6 µM (inconclusive)
[1]
  EC50: > 195 µM (not active)

## CCC(C)(NC(=O)c1ccccc1)C(=O)O (stereo unspecified)
[1]
  EC50: > 195 µM (not active)

## COc1cc(C(=O)NC2CCN(Cc3nnnn3Cc3cccs3)CC2)cc(OC)c1OC
[1]
  EC50: > 195 µM (not active)

## COc1ccc(CN(C)CC(O)COc2ccc(-c3ccccc3)cc2)cc1OC (stereo unspecified)
[3]
  EC50: 0.447 µM (active)
[4]
  EC50: 21.7 µM (active)

## CCOC(=O)N1CCN(Cc2nc3c(c(=O)n(C)c(=O)n3C)n2Cc2ccccc2)CC1
[1]
  EC50: > 195 µM (not active)

## O=C(NCC1CCCO1)c1onc(CSc2ccc(Cl)cc2)c1C(=O)O (stereo unspecified)
[1]
  EC50: 9.58 µM (active)

## CCCCCC(=O)N1CCCC(c2nc(-c3ccc(OC)cc3)no2)C1 (stereo unspecified)
Cytochrome P450 2D6
  AC50: 15.8 µM (inconclusive)

## Cc1cccc2nc(CNC(=O)CC3C(=O)NCCN3Cc3cccc(F)c3)cn12 (stereo unspecified)
[3]
  EC50: > 60 µM (not active)
[4]
  EC50: > 60 µM (not active)

## Fc1cccc(NC(=S)N2CCn3cccc3C2c2cccnc2)c1 (stereo unspecified)
[3]
  EC50: 0.885 µM (active)
[4]
  EC50: > 60 µM (not active)

## CCOC(=O)C1(Cc2ccccc2C(F)(F)F)CCN(C(C)CCn2cccn2)CC1 (stereo unspecified)
[3]
  EC50: 0.944 µM (active)
[4]
  EC50: > 60 µM (not active)

## C=CCN1CC[C@]23c4c5ccc(O)c4O[C@@H]2/C(=N/NC(=O)c2ccccc2)CC[C@@]3(O)[C@H]1C5
Cytochrome P450 2D6
  AC50: 15.8 µM (inconclusive)
Cytochrome P450 3A4
  AC50: 3.98 µM (inconclusive)

## COC1CCN(Cc2c(C(=O)N3CCN(C4CCCCC4)CC3)nc3ccccn23)CC1
[3]
  EC50: 1.63 µM (active)
[4]
  EC50: > 60 µM (not active)

## CCc1cccc2c(-c3ccccc3)c3c(nc12)OCC3
Cytochrome P450 2D6
  AC50: 15.8 µM (inconclusive)

## COC(=O)[C@@H]1c2cc3c(c(O)c2[C@@H](O)C[C@]1(C)O)C(=O)c1c(O)cc2c(c1C3=O)O[C@H]1O[C@@]2(C)[C@@H](O)[C@H](N(C)C)[C@H]1O
Cytochrome P450 2D6
  AC50: 5.01 µM (inconclusive)

## CN(C)c1ncc2nc(-c3ccc(F)cc3)c(=O)n(-c3ccccc3)c2n1
Cytochrome P450 2D6
  AC50: 1.58 µM (inconclusive)

## O=C(NC(=S)Nc1ccc2c(c1)OCO2)c1ccccc1
Cytochrome P450 2D6
  AC50: 3.55 µM (inconclusive)

## O=C(c1ccncc1)N1CCN(c2ccc(F)cc2)CC1
[1]
  EC50: > 195 µM (not active)

## Cc1ccc(NC(=O)c2cc(NC(=O)c3ccco3)ccc2N2CCOCC2)cc1
[1]
  EC50: > 195 µM (not active)

## Cc1c(-c2cccc(NC(=O)c3ccco3)c2)nc2ncccn12
[3]
  EC50: 1.78 µM (active)
[4]
  EC50: > 60 µM (not active)

## CCOC(=O)C1(CCOc2ccccc2)CCN(Cc2cccc3c2OCO3)CC1
[3]
  EC50: 2.1 µM (active)
[4]
  EC50: > 60 µM (not active)

## Cc1ccc2[nH]c(SCc3nc(O)c4cnn(-c5ccccc5)c4n3)nc2c1
Cytochrome P450 2D6
  AC50: 28.2 µM (inconclusive)

## CN(Cc1ccccc1)C(=O)c1ccccc1NC(=O)C1=CSCCO1
[1]
  EC50: > 195 µM (not active)

## O=C(N/N=C1/C[C@@H](O)[C@@H](O)[C@@H]2[C@H]3C(=O)N(c4ccc(F)cc4F)C(=O)[C@@H]3CC[C@H]12)OCc1ccccc1
Cytochrome P450 3A4
  AC50: 3.98 µM (inconclusive)

## O=[N+]([O-])c1nn(-c2ccc3c(c2)OCCO3)[n+]([O-])c1NCc1ccc(F)cc1
[3]
  EC50: 0.595 µM (active)
[4]
  EC50: > 60 µM (inconclusive)

## Clc1cc(/C=N\NC2=NCCN2)cc(Cl)n1
[3]
  EC50: 0.663 µM (active)
[4]
  EC50: > 60 µM (not active)

## Cc1ccc(C(=O)N/N=C\c2ccc([N+](=O)[O-])o2)cn1
[3]
  EC50: 0.238 µM (active)
[4]
  EC50: > 60 µM (not active)

## C/C(CCC(=O)OC[C@@H]1O[C@H](C#Cc2ccccc2)C=C[C@@H]1Oc1ccc(C)cc1)=N/OC[C@@H](C)[C@H](OCc1ccccc1)C(C)C
Cytochrome P450 3A4
  AC50: 3.98 µM (inconclusive)

## COc1ccc(OC)c2nc(O)c(CCNC(=O)c3ccc(S(=O)(=O)N4CCCC4)cc3)cc12
Cytochrome P450 2D6
  AC50: 20 µM (inconclusive)

## CCO/C(O)=C1\C(C)=NC(=S)NC1c1ccsc1 (stereo unspecified)
[1]
  EC50: > 195 µM (not active)

## O=C(c1ccc2c3c(cccc13)CC2)C1CCCN(Cc2cccnc2)C1 (stereo unspecified)
[3]
  EC50: 0.709 µM (active)
[4]
  EC50: > 60 µM (not active)

## O=c1c(CCc2ccccc2)nc2cncnc2n1Cc1ccc(F)cc1
Cytochrome P450 2D6
  AC50: 25.1 µM (inconclusive)

## O=S(=O)(Nc1ccc2oc(-c3ccccc3)nc2c1)c1ccccc1
Cytochrome P450 2D6
  AC50: 25.1 µM (inconclusive)

## COc1ccc(NC(=O)c2cc3cc(OC)ccc3oc2=N)cc1
[1]
  EC50: > 195 µM (not active)

## Cc1cccc(CNc2cc(-c3ccccc3Cl)ncn2)c1
Cytochrome P450 2D6
  AC50: 39.8 µM (inconclusive)

## C/C(=N\NC(=O)CC1N=C(Cc2ccccc2)NNC1=O)c1ccc(Cl)cc1Cl (stereo unspecified)
Cytochrome P450 2D6
  AC50: 15.8 µM (inconclusive)

## CCCOc1ccc(CNC(=S)N/N=C/c2ccc([N+](=O)[O-])cc2)cc1
[3]
  EC50: 1.99 µM (active)
[4]
  EC50: > 60 µM (not active)

## C=CCN(c1ccccc1)S(=O)(=O)c1cccc(C(=O)NC2CCN(Cc3ccccc3)CC2)c1
[3]
  EC50: 0.215 µM (active)
[4]
  EC50: 26.8 µM (active)

## CCN1CCN(CCNC(=O)CCCCCn2c(=O)[nH]c3cc(C(=O)OC)ccc3c2=O)CC1
[1]
  EC50: > 195 µM (not active)

## CCOc1ccc(C(=O)c2ccc([N+](=O)[O-])cc2Cl)cc1
[3]
  EC50: 2.18 µM (active)
[4]
  EC50: > 30 µM (not active)

## COc1ccc(NC(=O)CCOc2ccccc2)cc1
Cytochrome P450 2D6
  AC50: 22.4 µM (inconclusive)

## CCOC(=O)c1cccc(NC(=O)CCS(=O)(=O)c2ccc(Br)s2)c1
[1]
  EC50: > 195 µM (not active)

## Cc1cc(C(F)F)nn1CC(=O)NC1C(=O)N2C(C(=O)O)=C(CSc3nnnn3C)CSC12 (stereo unspecified)
Streptococcus
  EC50: 0.106 µM (active)
[2]
  EC50: 0.09 µM (active)

## CC(C)n1cc(CN2CCN(C)C(CCO)C2)c2ccccc21 (stereo unspecified)
[3]
  EC50: 0.109 µM (active)
[4]
  EC50: > 60 µM (not active)
